Where a name gives a salt, the structure may show the parent alone.

One data set relates to Mongrel dogs. Put plainly: Canine vagal-AF model: termination of sustained atrial fibrillation. In kind it is in vivo, dog. The conditions noted are these: IV. How it is done:
Mongrel dogs of either sex weighing 15-49 kg are anesthetized with morphine (2 mg/kg im initially, followed by 0.5 mg/kg IV every 2 h) and α-chloralose (120 mg/kg IV followed by an infusion of 29.25 mg/kg/h; St.-Georges et al., 1997). Dogs are ventilated mechanically with room air supplemented with oxygen via an endotracheal tube at 20 to 25 breaths/minute with a tidal volume obtained from a nomogram. […] Catheters are inserted into the femoral artery for blood pressure recording and blood gas measurement, and into both femoral veins for drug administration and venous sampling. Catheters are kept patent with heparinized 0.9% saline solution. Body temperature is maintained at 37-40° C. with a heating blanket. […] Drug effects to terminate sustained AF maintained during continuous vagal nerve stimulation are assessed. […] The vagal stimulation voltage is adjusted under control conditions, and then readjusted after each treatment to maintain the same bradycardic effect. […] Diastolic threshold current is determined at a basic cycle length of 300 ms by increasing the current 0.1 mA incrementally until stable capture is obtained. […] Atrial and ventricular ERP is measured with the extrastimulus method, over a range of S1S2 intervals at a basic cycle length of 300 ms. […] Diastolic threshold and ERP are determined in duplicate and averaged to give a single value. […]

Another data set addresses T1, Kv4.2 (Homo sapiens, UniProt Q9NZV8).
T1 construct: expressed in transfected cells; host or cells: HEK cells, transient transfection, vector pCDNA3
T1 sequence (Q9NZV8 1-630): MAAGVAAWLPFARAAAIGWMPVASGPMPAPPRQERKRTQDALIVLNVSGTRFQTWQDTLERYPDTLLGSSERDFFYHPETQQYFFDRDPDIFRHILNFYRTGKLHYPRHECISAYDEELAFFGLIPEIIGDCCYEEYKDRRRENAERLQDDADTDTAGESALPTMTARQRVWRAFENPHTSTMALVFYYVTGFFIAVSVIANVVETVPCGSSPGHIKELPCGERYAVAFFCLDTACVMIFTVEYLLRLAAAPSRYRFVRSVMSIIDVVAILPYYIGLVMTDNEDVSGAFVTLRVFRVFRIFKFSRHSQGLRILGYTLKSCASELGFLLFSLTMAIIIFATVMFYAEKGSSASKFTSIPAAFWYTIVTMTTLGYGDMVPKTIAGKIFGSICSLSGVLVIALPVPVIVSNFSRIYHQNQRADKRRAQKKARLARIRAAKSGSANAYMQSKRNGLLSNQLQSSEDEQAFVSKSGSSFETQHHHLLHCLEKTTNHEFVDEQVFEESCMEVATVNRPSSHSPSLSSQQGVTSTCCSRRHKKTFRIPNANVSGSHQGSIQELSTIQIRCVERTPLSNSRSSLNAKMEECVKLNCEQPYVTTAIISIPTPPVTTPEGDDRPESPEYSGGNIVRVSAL
Put plainly: Patch-clamp inhibition of cloned ion channel current in transfected HEK cells: Kv4.2. The conditions noted are these: integrated current, -80 mV to +60 mV. In kind it is cell-based. How it is done: (§1) The relevant cloned ion channels (e.g. cardiac hH1, Kv1.4, Kv1.5, Kv4.2, Kv2.1, HERG etc.) are studied by transient transfection into HEK cells using the mammalian expression vector pCDNA3. Transfections for each channel type are carried out separately to allow individual study of the ion channel of interest. Cells expressing channel protein are detected by cotransfecting cells with the vector pHook-1 (Invitrogen, San Diego, Calif., USA). […] Equal concentrations of individual channel and pHook DNA are incubated with 10× concentration of lipofectAce in Modified Eagle's Medium (MEM, Canadian Life Technologies) and incubated with parent HEK cells plated on 25 mm culture dishes. After 3–4 hours the solution is replaced with a standard culture medium plus 20% fetal bovine serum and 1% antimycotic. Transfected cells are maintained at 37C in an air/5% CO2 incubator in 25 mm Petri dishes plated on glass coverslips for 24–48 hours to allow channel expression to occur. 20 min prior to experiments, cells are treated with beads coated with phOX. After 15 min, excess beads are […] off with cell culture medium and cells which had beads stuck to them are used for electrophysiological tests.
(§2) For whole-cell recording the control pipette filling solution contained (in mM): KCl, 130; EGTA, 5; MgCl2, 1; HEPES, 10; Na2ATP, 4; GTP, 0.1; and is adjusted to pH 7.2 with KOH. The control bath solution contained (in mM): NaCl, 135; KCI, 5; sodium acetate, 2.8; MgCl2, 1; HEPES, 10; CaCl2, 1; and is adjusted to pH 7.4 with NaOH. The test ion channel modulating compound is dissolved to 10 mM stock solutions in water and used at concentrations between 0.5 and 100 μM.
(§3) Coverslips containing cells are removed from the incubator before experiments and placed in a superfusion chamber (volume 250 μl) containing the control bath solution at 22C to 23C. All recordings are made via the variations of the patch-clamp technique, using an Axopatch 200A amplifier (Axon Instruments, CA). Patch electrodes are pulled from thin-walled borosilicate glass (World Precision Instruments; FL) on a horizontal micropipette puller, fire-polished, and filled with appropriate solutions. Electrodes had resistances of […] when filled with control filling solution. Analog capacity compensation is used in all whole cell measurements. In some experiments, leak subtraction is applied to data. Membrane potentials have not been corrected for any junctional potentials that arose between the pipette and bath solution. Data are filtered at 5 to 10 kHz before digitization and stored on a microcomputer for later analysis using the pClamp6 software (Axon Instruments, Foster City, Calif.). Due to the high level of expression of channel cDNA's in HEK cells, there is no need for signal averaging. The average cell capacitance is quite small, and the absence of ionic current at negative membrane potentials allowed faithful leak subtraction of data.
(§4) The concentration-response curves for changes in peak and steady-state current produced by the test compound are computer-fitted to the Hill equation: f=1−1/[1+([…])^n] [1]
(§5) where f is the fractional current (f=Idrug/Icontrol) at drug concentration [D]; IC50 is the concentration producing half-maximal inhibition and n is the Hill coefficient.
(§6) Compounds of the present invention may be evaluated by this method. […] Block is determined from the decrease in peak hH1 Na^+ current, or in steady-state Kv1.5 and integrated Kv4.2 current in the presence of drug. To record Na^+ current, cells are depolarized from the holding potential of −100 mV to a voltage of −30 mV for 10 ms to fully open and inactivate the channel. To record Kv1.5 and Kv4.2 current, cells are depolarized from the holding potential of −80 mV to a voltage of +60 mV for 200 ms to fully open the channel. Currents are recorded in the steady-state at a range of drug concentrations during stimulation every 4 s. […]

In the next data set the target is T2, Kv1.5 (Homo sapiens, UniProt P22460).
T2 construct: expressed in transfected cells; host or cells: HEK cells, transient transfection, vector pCDNA3
T2 sequence (P22460 whole entry): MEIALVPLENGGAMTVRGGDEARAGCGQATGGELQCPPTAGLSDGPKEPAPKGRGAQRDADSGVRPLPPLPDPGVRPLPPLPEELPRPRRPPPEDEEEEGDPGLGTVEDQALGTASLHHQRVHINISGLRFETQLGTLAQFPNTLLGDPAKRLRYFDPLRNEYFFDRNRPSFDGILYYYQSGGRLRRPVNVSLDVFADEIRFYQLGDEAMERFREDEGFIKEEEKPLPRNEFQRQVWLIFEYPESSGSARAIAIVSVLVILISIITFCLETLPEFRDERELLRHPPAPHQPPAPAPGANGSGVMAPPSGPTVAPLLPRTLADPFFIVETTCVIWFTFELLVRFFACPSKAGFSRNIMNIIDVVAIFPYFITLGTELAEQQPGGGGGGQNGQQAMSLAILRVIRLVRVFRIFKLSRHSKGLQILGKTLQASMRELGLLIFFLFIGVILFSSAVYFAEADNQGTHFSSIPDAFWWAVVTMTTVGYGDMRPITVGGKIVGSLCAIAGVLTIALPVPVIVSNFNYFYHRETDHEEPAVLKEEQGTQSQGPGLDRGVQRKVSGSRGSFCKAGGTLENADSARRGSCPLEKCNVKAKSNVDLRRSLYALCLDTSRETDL
Put plainly: Patch-clamp inhibition of cloned ion channel current in transfected HEK cells: Kv1.5. As to conditions: steady-state current, -80 mV to +60 mV. It is filed as cell-based. How it is done: as §1, §2, §3, §4, §5, §6

In another data set the target is T3, hH1 Na+ current (Homo sapiens, UniProt Q14524).
T3 construct: expressed in transfected cells; host or cells: HEK cells, transient transfection, vector pCDNA3
T3 sequence (Q14524 whole entry): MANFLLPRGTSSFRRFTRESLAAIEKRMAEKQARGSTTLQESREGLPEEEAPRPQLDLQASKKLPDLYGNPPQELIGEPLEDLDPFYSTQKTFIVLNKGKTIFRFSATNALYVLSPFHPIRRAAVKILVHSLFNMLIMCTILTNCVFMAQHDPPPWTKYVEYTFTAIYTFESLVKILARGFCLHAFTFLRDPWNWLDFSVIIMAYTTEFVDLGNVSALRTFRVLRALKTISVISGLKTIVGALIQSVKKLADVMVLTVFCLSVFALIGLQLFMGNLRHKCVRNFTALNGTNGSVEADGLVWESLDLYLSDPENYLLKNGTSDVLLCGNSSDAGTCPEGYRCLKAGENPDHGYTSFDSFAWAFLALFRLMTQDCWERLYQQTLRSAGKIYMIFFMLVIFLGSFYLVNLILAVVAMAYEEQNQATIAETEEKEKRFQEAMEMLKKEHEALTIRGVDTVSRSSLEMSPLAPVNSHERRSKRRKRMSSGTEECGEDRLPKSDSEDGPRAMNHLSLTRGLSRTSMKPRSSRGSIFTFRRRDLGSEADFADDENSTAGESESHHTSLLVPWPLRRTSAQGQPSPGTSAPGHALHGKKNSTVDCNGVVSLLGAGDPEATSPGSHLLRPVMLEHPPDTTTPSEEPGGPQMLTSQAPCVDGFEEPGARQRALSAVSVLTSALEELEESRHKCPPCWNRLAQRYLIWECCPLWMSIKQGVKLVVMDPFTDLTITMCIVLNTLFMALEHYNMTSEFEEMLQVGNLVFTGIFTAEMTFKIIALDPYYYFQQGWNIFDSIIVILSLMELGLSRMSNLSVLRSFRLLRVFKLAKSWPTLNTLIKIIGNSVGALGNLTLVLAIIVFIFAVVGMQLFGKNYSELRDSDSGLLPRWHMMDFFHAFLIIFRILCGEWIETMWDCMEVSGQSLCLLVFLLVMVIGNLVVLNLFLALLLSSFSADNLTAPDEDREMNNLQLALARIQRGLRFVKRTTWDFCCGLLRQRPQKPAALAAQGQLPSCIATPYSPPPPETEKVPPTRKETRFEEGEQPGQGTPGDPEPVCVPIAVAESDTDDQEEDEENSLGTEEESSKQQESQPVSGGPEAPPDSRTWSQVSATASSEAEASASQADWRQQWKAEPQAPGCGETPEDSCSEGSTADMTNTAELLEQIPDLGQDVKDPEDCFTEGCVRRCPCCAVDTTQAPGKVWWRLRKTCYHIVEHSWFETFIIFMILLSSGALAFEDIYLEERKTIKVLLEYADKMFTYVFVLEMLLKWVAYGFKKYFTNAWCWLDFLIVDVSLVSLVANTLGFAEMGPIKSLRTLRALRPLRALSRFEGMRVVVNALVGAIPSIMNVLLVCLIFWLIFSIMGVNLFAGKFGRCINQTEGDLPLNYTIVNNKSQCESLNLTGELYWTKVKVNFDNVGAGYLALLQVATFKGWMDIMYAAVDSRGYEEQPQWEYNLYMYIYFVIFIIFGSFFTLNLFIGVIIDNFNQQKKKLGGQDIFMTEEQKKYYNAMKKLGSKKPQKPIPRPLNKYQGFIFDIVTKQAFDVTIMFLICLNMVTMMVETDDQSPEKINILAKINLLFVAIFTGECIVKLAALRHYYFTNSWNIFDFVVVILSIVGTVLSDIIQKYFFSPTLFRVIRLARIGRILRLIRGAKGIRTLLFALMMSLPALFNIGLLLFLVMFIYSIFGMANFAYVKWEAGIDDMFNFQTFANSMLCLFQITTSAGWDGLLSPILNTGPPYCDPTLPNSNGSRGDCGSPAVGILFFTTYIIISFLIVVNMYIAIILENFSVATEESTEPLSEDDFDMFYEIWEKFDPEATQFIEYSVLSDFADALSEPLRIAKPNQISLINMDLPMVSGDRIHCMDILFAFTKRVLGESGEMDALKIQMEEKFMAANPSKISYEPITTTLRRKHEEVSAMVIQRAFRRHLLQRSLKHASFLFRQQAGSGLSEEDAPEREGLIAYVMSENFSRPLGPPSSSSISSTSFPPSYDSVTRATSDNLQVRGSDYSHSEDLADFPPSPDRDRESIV
Kind of data set: Patch-clamp inhibition of cloned ion channel current in transfected HEK cells: Na. The conditions noted are these: peak hH1 Na+ current, -100 mV to -30 mV. It is filed as cell-based. How it is done:
as §1, §2, §3, §4, §5, §6

A further data set has as its system CD-1 mice. Kind of data set: Assessment of pain blockage: pin prick, mouse tail. In kind it is in vivo. The conditions noted are these: injection into lateral tail vein with tourniquet. How it is done: CD-1 mice (20–30 g) are restrained in an appropriate holder. A tourniquet is placed at the base of the tail and a solution of the test compound (50 μl, 5 mg/ml) is injected into the lateral tail vein. The tourniquet is removed 10 min after the injection. Suitable dilutions of compound solution are used to obtain an ED50 for pain blockade at various times after injection. Pain responses are assessed by pin prick at regular intervals up to 4 hours post injection and the duration of pain blockage is recorded for three animals for each test compound solution. Compounds of the present invention may be evaluated according to the method described.

For another data set, the target named is T4, HERG (Homo sapiens, UniProt Q12809).
T4 construct: expressed in transfected cells; host or cells: HEK cells, transient transfection, vector pCDNA3
T4 sequence (Q12809 whole entry): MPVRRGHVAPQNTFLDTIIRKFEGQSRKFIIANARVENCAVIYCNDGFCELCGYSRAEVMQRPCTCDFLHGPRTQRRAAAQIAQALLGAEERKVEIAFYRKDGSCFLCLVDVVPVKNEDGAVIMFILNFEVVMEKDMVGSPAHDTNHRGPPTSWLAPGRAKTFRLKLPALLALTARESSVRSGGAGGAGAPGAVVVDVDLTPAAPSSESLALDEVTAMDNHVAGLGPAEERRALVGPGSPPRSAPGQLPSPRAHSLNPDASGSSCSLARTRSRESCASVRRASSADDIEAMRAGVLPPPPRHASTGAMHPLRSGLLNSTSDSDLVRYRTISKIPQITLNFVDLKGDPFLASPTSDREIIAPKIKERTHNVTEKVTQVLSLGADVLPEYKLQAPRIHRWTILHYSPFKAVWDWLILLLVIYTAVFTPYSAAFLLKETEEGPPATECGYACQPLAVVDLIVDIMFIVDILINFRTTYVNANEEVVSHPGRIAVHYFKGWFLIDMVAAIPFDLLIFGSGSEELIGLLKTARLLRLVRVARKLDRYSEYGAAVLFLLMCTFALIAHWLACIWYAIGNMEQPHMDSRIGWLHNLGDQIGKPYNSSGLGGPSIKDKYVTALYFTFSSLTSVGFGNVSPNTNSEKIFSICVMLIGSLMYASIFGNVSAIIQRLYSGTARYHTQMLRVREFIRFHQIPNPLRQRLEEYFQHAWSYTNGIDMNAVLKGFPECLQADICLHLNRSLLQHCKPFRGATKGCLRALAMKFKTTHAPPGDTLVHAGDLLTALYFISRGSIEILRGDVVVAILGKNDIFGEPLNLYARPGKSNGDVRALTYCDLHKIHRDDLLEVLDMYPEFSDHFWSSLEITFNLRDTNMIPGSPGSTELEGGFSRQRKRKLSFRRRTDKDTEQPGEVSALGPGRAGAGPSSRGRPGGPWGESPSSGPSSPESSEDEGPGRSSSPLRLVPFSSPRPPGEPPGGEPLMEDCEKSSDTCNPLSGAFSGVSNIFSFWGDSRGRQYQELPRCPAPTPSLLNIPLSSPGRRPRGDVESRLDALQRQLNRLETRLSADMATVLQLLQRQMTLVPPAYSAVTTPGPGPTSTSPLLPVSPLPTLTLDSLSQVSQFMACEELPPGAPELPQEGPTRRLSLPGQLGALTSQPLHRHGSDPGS
Kind of data set: Patch-clamp inhibition of cloned ion channel current in transfected HEK cells: HERG. As to conditions: whole-cell patch clamp. It is filed as cell-based. How it is done:
as §1, §2, §3, §4, §5, §6

The subject of a further data set is Sprague Dawley rats. Kind of data set: Cardiovascular and behavioral effects: ECG changes during i.v. infusion in conscious rats. In kind it is in vivo, rat. How it is done: Preparative surgery is performed in Sprague Dawley rats weighing 200–300 gm and anaesthetized with 65 mg/kg (i.p.) pentobarbital. The femoral artery and vein are cannulated using polyethylene (PE)-10 tubing. Prior to surgery, this PE-10 tubing had been annealed to a wider gauge (PE-50) tubing for externalization. The cannulated PE-10/PE-50 tubing is passed through a trocar and exteriorised together with three (lead II) limb ECG leads (see below). The trocar is threaded under the skin of the back and out through a small incision at the mid-scapular region. A ground ECG electrode is inserted subcutaneously using a 20 gauge needle with the lead wire threaded through it. To place the other ECG electrodes, a small incision is made in the anterior chest region over the heart and ECG leads are inserted into the subcutaneous muscle layer in the region of the heart using a 20 guage needle. Other ECG leads are inserted into the subcutaneous muscle layer in the region near the base of the neck and shoulder (right side). The animal is returned to a clean recovery-cage with free access to food and water. The treatment and observational period for each animal commenced after a 24-hour recovery period.
A 15 min observational period is recorded followed by the intravenous infusion regime of the test compound at an initial dose of 2.0 μmol/kg/min (at 1 ml/hr). This rate is doubled every 5 minutes until one of the following effects is observed:
Blood pressure (BP), heart rate (HR) and ECG variables are continuously recorded while behavioral responses are also monitored and the total accumulative drug dose and drug infusion rate at which the response (such as convulsion, piloerection, ataxia, restlessness, compulsive chewing, lip-smacking, wet dog shake etc.) occurred are recorded.
Electrocardiograph (ECG) parameters: PR, QRS, QT1 (peak of T-wave), QT2 (midpoint of T-wave deflection) and hemodynamic parameters: BP and HR are analyzed using the automated analysis function in LabView (National Instruments) with a customized autoanalysis software (Nortran Pharmaceuticals). The infused dose producing 25% from control (D25) for all recorded ECG variables is determined.
Table 2 describes the results of the tests as D25 (micromol/kg) which are the doses required to produce a 25% increase in the ECG parameter measured (ne=not estimated). The increases in P-R interval and QRS interval indicate cardiac sodium channel blockade while the increase in Q-T interval indicates cardiac potassium channel blockade.

The mark [1] stands for this setting: indicates cardiac sodium channel blockade.

In the case of `O=C(NCC1CCCCN1)c1cc(OCC(F)(F)F)ccc1OCC(F)(F)F` (centres unmarked) [Flecainide], the “Median dose required for termination of AF” value in the data set with Mongrel dogs turned out to be 2.5 µmol/kg. Further, the “Mean dose required for termination of AF” value in the data set on Mongrel dogs (mean ±SEM) is 4 ± 2 µmol/kg.
Consider `Cc1cn2cccc(OCCCc3ccc(Cl)cc3Cl)c2n1` (as salt: hydrochloride) [Compound 1, 8-[3-(2,4-DICHLOROPHENYL)PROPOXY]-2-METHYLIMIDAZO[1,2-α]PYRIDINEMONOHYDROCHLORIDE], for which the melting point is less than 193 °C.
Take `Cc1cn2cccc(OCCCc3ccc(Cl)cc3Cl)c2n1` [Compound 1, 8-[3-(2,4-DICHLOROPHENYL)PROPOXY]-2-METHYLIMIDAZO[1,2-α]PYRIDINEMONOHYDROCHLORIDE]: the IC50 against Kv4.2 amounted to 2 µM; against Kv1.5, 0.3 µM; at hH1 Na+ current, 8 µM; against HERG, 0.1 µM. For the same molecule, the “ED50 for pain blockade” value in the data set on CD-1 mice was determined as 0.073 mg/tail. For the same molecule, the “D25 QT (dose required to produce a 25% increase in Q-T interval)” value with Sprague Dawley rats (indicates cardiac potassium channel blockade) came to 8 µmol/kg. For the same molecule, the “D25 PR (dose required to produce a 25% increase in P-R interval)” value in the data set on Sprague Dawley rats (setting [1]) worked out at 14 µmol/kg. Further, the “D25 QRS (dose required to produce a 25% increase in QRS interval)” value in the data set on Sprague Dawley rats (setting [1]) stood at 12 µmol/kg.

(Values after patent publication US7105534B2, “Imidazo[1,2-α]pyridine ether compounds as ion channel modulators” (Cardiome Pharma Corp., priority 2000, dated 2006).)
